Measured values: article PMC10669656, “ADMET and Solubility Analysis of New 5-Nitroisatine-Based Inhibitors of CDK2 Enzymes” (Biomedicines, 2023)
In brackets after ≈: the same amount, converted by molar mass. Several values for one entry are separate records, joined by “and”; a condition that tells them apart may be missing. Equal entries are not always repeated.

Columns and labels:
Type in all cases: physicochemical
[1] = Solubility in NMP-water binary mixtures; details: for solubility at 24 h: thermodynamic from solid
Procedure: (§1) The calibration curves for each derivative were obtained using successful dilutions of initial stock solutions followed by spectrophotometric measurements of the obtained solutions with decreasing concentration. The concentration ranges for the derivatives 1, 2, and 3 were 0.0081–0.0405 mg/mL, 0.0077–0.0385 mg/mL, and 0.0068–0.017 mg/mL, respectively. Methanol was used both as a solvent, as well as a reference for spectrophotometric measurements. […] The A360 spectrophotometer from AOE Instruments was used for the preparation of the calibration curves. […] Three calibration curves were prepared for each derivative and then averaged.
(§2) A multi-step procedure was employed in order to find the solubility of the studied derivatives in the selected solvents. First of all, the excess amount of the considered compound was added to test tubes containing either neat solvents or their mixtures with water in different proportions, thus forming binary solvents. Saturated solutions were obtained in this way, placed in a Shaker Incubator ES-20/60 from Biosan, and incubated for 24 h at 298.1 K. The temperature adjustment was possible with a 0.1-degree accuracy, and the variance within a 24 h cycle was 0.5 degrees. The samples were simultaneously mixed at 60 rev/min. After incubation, the samples were filtered with the help of plastic syringes equipped with PTFE filters with 0.22 µm pore size. The obtained filtrates were diluted with methanol in another set of test tubes. In order to determine the mole fractions of a solute in the solution, 1 mL of the filtered samples was weighed in 10 mL volumetric flasks using a RADWAG AS 110 R2.PLUS analytical balance. The samples diluted with methanol were measured spectrophotometrically using the same instrument as was used in the case of calibration curves. The spectra were recorded in the wavelength range of 190–500 nm, and the resolution was 1 nm. Methanol was used if further dilution of the sample was required, and it was also used as a reference for calibrating the spectrophotometer. The absorbance values at 315 nm, 321 nm, and 321 nm were taken into account for derivatives 1, 2, and 3, respectively. Based on the calibration curves, the concentration of the solute in the samples was determined together with its mole fraction. Three separate measurements were conducted, and the final values are the results of averaging them.

[2] = Solubility in DMSO-water binary mixtures; details: for solubility at 24 h: 25 °C, thermodynamic from solid
Procedure: as §1, §2

[3] = Solubility in neat solvents, shake-flask with spectrophotometric determination; details: for solubility at 24 h: 25 °C, organic solvent or mixture, thermodynamic from solid
Procedure: as §1, §2

[4] = neat γ-nonanoic lactone, 298.1 K

## Nc1cccc(C(=O)NN=C2C(=O)Nc3ccc([N+](=O)[O-])cc32)c1 [derivative 2, 3-Amino-N′-[5-nitro-2-oxo-1,2-dihydro-3H-indol-3-ylidene]benzohydrazide]
[1]; NMP-water binary mixture, x*NMP 0.1, 25 °C, aqueous with cosolvent or surfactant or cyclodextrin, x*NMP 0.1, 298.1 K
  solubility at 24 h: 5750 µg/mL (≈ 17.7 mM)
[1]; NMP-water binary mixture, x*NMP 0.2, 25 °C, aqueous with cosolvent or surfactant or cyclodextrin, x*NMP 0.2, 298.1 K
  solubility at 24 h: 12100 µg/mL (≈ 37.2 mM)
[1]; NMP-water binary mixture, x*NMP 0.3, 25 °C, aqueous with cosolvent or surfactant or cyclodextrin, x*NMP 0.3, 298.1 K
  solubility at 24 h: 18200 µg/mL (≈ 56 mM)
[1]; NMP-water binary mixture, x*NMP 0.4, 25 °C, aqueous with cosolvent or surfactant or cyclodextrin, x*NMP 0.4, 298.1 K
  solubility at 24 h: 23300 µg/mL (≈ 71.6 mM)
[1]; NMP-water binary mixture, x*NMP 0.7, 25 °C, aqueous with cosolvent or surfactant or cyclodextrin, x*NMP 0.7, 298.1 K
  solubility at 24 h: 34500 µg/mL (≈ 106 mM)
[1]; NMP-water binary mixture, x*NMP 0.8, 25 °C, aqueous with cosolvent or surfactant or cyclodextrin, x*NMP 0.8, 298.1 K
  solubility at 24 h: 35900 µg/mL (≈ 110 mM)
[1]; NMP-water binary mixture, x*NMP 0.9, 25 °C, aqueous with cosolvent or surfactant or cyclodextrin, x*NMP 0.9, 298.1 K
  solubility at 24 h: 34900 µg/mL (≈ 107 mM)
[1]; NMP-water binary solvent, 25 °C, aqueous with cosolvent or surfactant or cyclodextrin, x*NMP 0.5, 298.1 K
  solubility at 24 h: 29500 µg/mL (≈ 90.7 mM)
[1]; NMP-water binary solvent, 25 °C, aqueous with cosolvent or surfactant or cyclodextrin, x*NMP 0.6, 298.1 K
  solubility at 24 h: 33000 µg/mL (≈ 101 mM)
[1]; NMP-water series, x*NMP 1.0, 25 °C, organic solvent or mixture, x*NMP 1.0, 298.1 K
  solubility at 24 h: 32700 µg/mL (≈ 101 mM)
[1]; x*NMP 0.1, 298.1 K
  solubility x: 4.43 (0.05) × 10^−4 mole fraction
[1]; x*NMP 0.2, 298.1 K
  solubility x: 1.23 (0.01) × 10^−3 mole fraction
[1]; x*NMP 0.3, 298.1 K
  solubility x: 2.32 (0.03) × 10^−3 mole fraction
[1]; x*NMP 0.4, 298.1 K
  solubility x: 3.53 (0.04) × 10^−3 mole fraction
[1]; x*NMP 0.5, 298.1 K
  solubility x: 5.24 (0.06) × 10^−3 mole fraction
[1]; x*NMP 0.6, 298.1 K
  solubility x: 6.71 (0.08) × 10^−3 mole fraction
[1]; x*NMP 0.7, 298.1 K
  solubility x: 7.95 (0.08) × 10^−3 mole fraction
[1]; x*NMP 0.8, 298.1 K
  solubility x: 8.96 (0.09) × 10^−3 mole fraction
[1]; x*NMP 0.9, 298.1 K
  solubility x: 9.53 (0.11) × 10^−3 mole fraction
[1]; x*NMP 1.0, 298.1 K
  solubility x: 9.80 (0.13) × 10^−3 mole fraction
[2]; DMSO-water binary mixture, aqueous with cosolvent or surfactant or cyclodextrin, x*DMSO 0.1, 298.1 K
  solubility at 24 h: 3220 µg/mL (≈ 9.9 mM)
[2]; DMSO-water binary mixture, aqueous with cosolvent or surfactant or cyclodextrin, x*DMSO 0.2, 298.1 K
  solubility at 24 h: 6950 µg/mL (≈ 21.4 mM)
[2]; DMSO-water binary mixture, aqueous with cosolvent or surfactant or cyclodextrin, x*DMSO 0.3, 298.1 K
  solubility at 24 h: 10800 µg/mL (≈ 33.2 mM)
[2]; DMSO-water binary mixture, aqueous with cosolvent or surfactant or cyclodextrin, x*DMSO 0.4, 298.1 K
  solubility at 24 h: 14300 µg/mL (≈ 44 mM)
[2]; DMSO-water binary mixture, aqueous with cosolvent or surfactant or cyclodextrin, x*DMSO 0.5, 298.1 K
  solubility at 24 h: 18400 µg/mL (≈ 56.6 mM)
[2]; DMSO-water binary mixture, aqueous with cosolvent or surfactant or cyclodextrin, x*DMSO 0.6, 298.1 K
  solubility at 24 h: 21000 µg/mL (≈ 64.6 mM)
[2]; DMSO-water binary mixture, aqueous with cosolvent or surfactant or cyclodextrin, x*DMSO 0.7, 298.1 K
  solubility at 24 h: 24100 µg/mL (≈ 74.1 mM)
[2]; DMSO-water binary mixture, aqueous with cosolvent or surfactant or cyclodextrin, x*DMSO 0.8, 298.1 K
  solubility at 24 h: 25400 µg/mL (≈ 78.1 mM)
[2]; DMSO-water binary mixture, aqueous with cosolvent or surfactant or cyclodextrin, x*DMSO 0.9, 298.1 K
  solubility at 24 h: 24100 µg/mL (≈ 74.1 mM)
[2]; DMSO-water series, organic solvent or mixture, x*DMSO 1.0, 298.1 K
  solubility at 24 h: 21400 µg/mL (≈ 65.8 mM)
[2]; x*DMSO 0.1, 298.1 K
  solubility x: 2.11 (0.02) × 10^−4 mole fraction
[2]; x*DMSO 0.2, 298.1 K
  solubility x: 5.76 (0.06) × 10^−4 mole fraction
[2]; x*DMSO 0.3, 298.1 K
  solubility x: 1.08 (0.01) × 10^−3 mole fraction
[2]; x*DMSO 0.4, 298.1 K
  solubility x: 1.69 (0.02) × 10^−3 mole fraction
[2]; x*DMSO 0.5, 298.1 K
  solubility x: 2.46 (0.02) × 10^−3 mole fraction
[2]; x*DMSO 0.6, 298.1 K
  solubility x: 3.18 (0.03) × 10^−3 mole fraction
[2]; x*DMSO 0.7, 298.1 K
  solubility x: 4.01 (0.05) × 10^−3 mole fraction
[2]; x*DMSO 0.8, 298.1 K
  solubility x: 4.68 (0.03) × 10^−3 mole fraction
[2]; x*DMSO 0.9, 298.1 K
  solubility x: 4.86 (0.08) × 10^−3 mole fraction
[2]; x*DMSO 1.0, 298.1 K
  solubility x: 4.63 (0.14) × 10^−3 mole fraction
[3]; neat DMF, 298.1 K
  solubility at 24 h: 15300 µg/mL (≈ 47 mM)
  solubility x: 3.66 × 10^−3 mole fraction and 3.66 (0.06) × 10^−3 mole fraction
[3]; neat DMP, 298.1 K
  solubility at 24 h: 290 µg/mL (≈ 0.892 mM)
  solubility x: 1.05 (0.03) × 10^−4 mole fraction
[3]; neat DMSO, 298.1 K
  solubility at 24 h: 21400 µg/mL (≈ 65.8 mM)
  solubility x: 4.63 × 10^−3 mole fraction and 4.63 (0.14) × 10^−3 mole fraction
[3]; neat NMP, 298.1 K
  solubility at 24 h: 32700 µg/mL (≈ 101 mM)
  solubility x: 9.80 × 10^−3 mole fraction and 9.80 (0.13) × 10^−3 mole fraction
[3]; neat acetone, 298.1 K
  solubility at 24 h: 900 µg/mL (≈ 2.77 mM)
[3]; neat acetonitrile, 298.1 K
  solubility at 24 h: 610 µg/mL (≈ 1.88 mM)
  solubility x: 0.96 (0.03) × 10^−4 mole fraction
[3]; neat cyrene, 298.1 K
  solubility at 24 h: 750 µg/mL (≈ 2.31 mM)
  solubility x: 2.36 (0.04) × 10^−4 mole fraction
[3]; neat diglyme, 298.1 K
  solubility at 24 h: 1190 µg/mL (≈ 3.66 mM)
  solubility x: 5.22 (0.10) × 10^−4 mole fraction
[3]; neat dioxane, 298.1 K
  solubility at 24 h: 960 µg/mL (≈ 2.95 mM)
  solubility x: 2.49 (0.05) × 10^−4 mole fraction
[3]; neat ethyl lactate, 298.1 K
  solubility at 24 h: 560 µg/mL (≈ 1.72 mM)
  solubility x: 1.95 (0.04) × 10^−4 mole fraction
[3]; neat methanol, 298.1 K
  solubility at 24 h: 310 µg/mL (≈ 0.953 mM)
  solubility x: 0.39 (0.01) × 10^−4 mole fraction
[3]; neat tetraglyme, 298.1 K
  solubility at 24 h: 1790 µg/mL (≈ 5.5 mM)
  solubility x: 1.20 (0.02) × 10^−3 mole fraction
[3]; neat triglyme, 298.1 K
  solubility at 24 h: 420 µg/mL (≈ 1.29 mM)
  solubility x: 2.34 (0.06) × 10^−4 mole fraction
[3]; neat γ-heptalactone, 298.1 K
  solubility at 24 h: 1090 µg/mL (≈ 3.35 mM)
  solubility x: 4.25 (0.06) × 10^−4 mole fraction
[3]; [4]
  solubility at 24 h: 710 µg/mL (≈ 2.18 mM)
  solubility x: 3.46 (0.07) × 10^−4 mole fraction
[3]; neat 1-butanol
  solubility at 24 h: 70 µg/mL (≈ 0.215 mM)
[3]; neat 1-butanol, 298.1 K
  solubility x: 0.21 (0.01) × 10^−4 mole fraction
[3]; neat 1-propanol
  solubility at 24 h: 100 µg/mL (≈ 0.307 mM)
[3]; neat 1-propanol, 298.1 K
  solubility x: 0.23 (0.01) × 10^−4 mole fraction
[3]; neat 4FM
  solubility at 24 h: 3470 µg/mL (≈ 10.7 mM)
[3]; neat 4FM, 298.1 K
  solubility x: 1.06 (0.04) × 10^−3 mole fraction
[3]; neat ethanol
  solubility at 24 h: 150 µg/mL (≈ 0.461 mM)
[3]; neat ethanol, 298.1 K
  solubility x: 0.26 (0.01) × 10^−4 mole fraction
[3]; neat ε-caprolactone
  solubility at 24 h: 1010 µg/mL (≈ 3.1 mM)
[3]; neat ε-caprolactone, 298.1 K
  solubility x: 3.25 (0.09) × 10^−4 mole fraction
